According to patent publication US9873709B2 (priority 2013, dated 2018):
Like-named read-outs stand apart in the source and are kept apart here.

Experiments:
[1] = target: isolated recombinant JAK2 kinase domain (Homo sapiens (Human), UniProt O60674); assay: biochemical
[2] = tested on: JAK1-dependent STAT6 phosphorylation downstream of IL-13 stimulation in TF-1 human erythroleukemia cells; assay: cells; settings: TF-1, read-out: IL-13-pSTAT6 IC50
[3] = tested on: JAK1-dependent STAT6 phosphorylation downstream of IL-13 stimulation in BEAS-2B human bronchial epithelial cells; assay: cells; settings: read-out: IL13-pSTAT6 BEASB2B IC50
[4] = tested on: JAK1-dependent STAT6 phosphorylation downstream of IL-13 stimulation in TF-1 human erythroleukemia cells; settings: read-out: IL-13-pSTAT6 IC50, TF-1 cells

Sequence of isolated recombinant JAK2 kinase domain (O60674 849-1124): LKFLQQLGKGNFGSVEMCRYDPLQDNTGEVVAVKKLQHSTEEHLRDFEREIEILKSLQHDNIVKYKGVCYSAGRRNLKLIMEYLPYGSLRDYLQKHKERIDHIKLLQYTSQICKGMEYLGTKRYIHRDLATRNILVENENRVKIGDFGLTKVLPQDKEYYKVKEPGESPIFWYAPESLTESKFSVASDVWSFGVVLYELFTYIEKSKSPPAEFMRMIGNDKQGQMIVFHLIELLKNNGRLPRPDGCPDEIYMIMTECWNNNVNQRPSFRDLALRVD

Ki [1] [nM]	IC50 [2] [nM]	SMILES	IC50 [3] [nM]	IC50 [4] [nM]
0.15	15.5	CNC1CN(C(=O)c2ccc(Nc3nc4c(N5CCC(CO)(c6ccc(Cl)cc6)CC5)cccn4n3)cc2)C1 [Example 1-283, [4-[[8-[4-(4-chlorophenyl)-4-(hydroxymethyl)-1-piperidyl]-[1,2,4]triazolo[1,5-a]pyridin-2-yl]amino]phenyl]-[3-(methylamino)azetidin-1-yl]methanone]	31.3	–
–	–	CN1CCC(N(C)C(=O)c2ccc(Nc3nc4c(C5=CCN(C(=O)C6CCC(C#N)CC6)CC5)cccn4n3)cc2)CC1 (centres unmarked) [Example 2-285, 4-[[8-[1-(4-cyanocyclohexanecarbonyl)-3,6-dihydro-2H-pyridin-4-yl]-[1,2,4]triazolo[1,5-a]pyridin-2-yl]amino]-N-methyl-N-(1-methyl-4-piperidyl)benzamide]	–	739
–	–	CNC(=O)C1CN(C(C)C)CCN1C(=O)c1ccc(Nc2nc3c(C4=CCN(C(=O)CCC(F)(F)F)CC4)cccn3n2)cc1 (centres unmarked) [Example 2-327, 4-isopropyl-N-methyl-1-[4-[[8-[1-(4,4,4-trifluorobutanoyl)-3,6-dihydro-2H-pyridin-4-yl]-[1,2,4]triazolo[1,5-a]pyridin-2-yl]amino]benzoyl] piperazine-2-carboxamide]	–	19.9
